From US12186303B2, “Feed additive for cattle comprising n-acetyl-l-tryptophan as active ingredient” (CJ CHEILJEDANG CORPORATION, priority 2018, dated 2025)

Experiments:
Korean native steers [1] = test: Body weight, average daily gain and feed conversion ratio according to NALT feeding under cold stress conditions; type: in vivo, Korean native cattle
Method: In the present disclosure, 8 Korean native steers (8.3±0.72 months old on average) were selected and used. […] Analysis of chemical composition (moisture, crude protein, crude fat, crude ash, etc.) and amino acids (19 types) of the basal diet stored at −20° C. was performed, and the results are shown in Table 3. After grouping the animals by statistical analysis of initial body weights, the animals were bred in 1.0×1.5 m^2 individual pens during the experiment period. The feed was offered based on an amount of dry matter of daily total mixed ration (TMR) per head. After 7 days of an adaptation period for N-acetyl-L-tryptophan (NALT), a mixture of 0.1% N-acetyl-L-tryptophan (NALT) and the total mixed ration was fed to individual animals every morning at 8 a.m. for 6 weeks, and water was available ad libitum. Total amounts of L-tryptophan ingested by the control and NALT-treated group by feeding NALT were 7.37 g/day/head and 16.26 g/day/head, respectively. The experiment was performed such that the NALT-treated group ingested 8.89 g/day/head more L-tryptophan than that of the control. Meanwhile, results of growth performance analysis (body weight and average feed intake) and genetic analysis of loin tissue were obtained by statistically comparing and analyzing significant differences between the control and the NALT-treated group, and results of hematological analysis were obtained via statistical comparison and analysis depending on NALT treatment, experiment period (days), and interaction (treatment×days). These numerical values were expressed as average values, and a significance test was performed at the 5% level using Student's t-test by using the JMP 5.0 software package (SAS Institute Inc., Cary, NC, USA). An average temperature during the adaptation period (days 0-6) was 4.3° C., and average temperatures during the experiment period were in the range of −6.2° C. to 4.2° C., relatively low compared to that of the adaptation period. In addition, an average temperature of the entire experiment period (days 7-48) was −1.0° C. Initial weight (day 0), intermediate weight (day 27), and end weight (day 48) of sentinel animals were measured, i.e., three times in total, before offering morning feed. The average daily gain (average daily weight gain, ADG) of the sentinel animals was calculated by dividing the differences in weight, between the initial weight and the intermediate weight and between the intermediate weight and the end weight, by the total number of days of the experiment.

Korean native steers [2] = test: Feed intake and drinking water intake according to NALT feeding under heat stress conditions; type: in vivo, Korean native cattle; conditions: for Drinking water intake / Feed intake: 0.1% NALT
From the text: After grouping the animals by statistical analysis of initial body weights, the animals were bred in 1.0×1.5 m^2 individual pens during the experiment period. The feed was offered based on an amount of dry matter of daily total mixed ration (TMR) per head. After 7 days of an adaptation period for N-acetyl-L-tryptophan (NALT), a mixture of 0.1% N-acetyl-L-tryptophan (NALT) and the total mixed ration was fed to individual animals every morning at 8 a.m. for 6 weeks, and water was available ad libitum. Total amounts of L-tryptophan ingested by the control and the experimental group (NALT-treated group) by feeding NALT were 6.0 g/day/head and 18.2 g/day/head, respectively. The experiment was performed such that the NALT-treated group ingested 12.2 g/day/head more L-tryptophan than the control.
Meanwhile, results of growth performance analysis (body weight and average feed intake) and genetic analysis of loin tissue were obtained by statistically comparing and analyzing significant differences between the control and the NALT-treated group, and results of hematological analysis were obtained via statistical comparison and analysis depending on NALT treatment, experiment period (days), and interaction (treatment×days). These numerical values were expressed as average values, and a significance test was performed at the 5% level using Student's t-test by using a JMP 5.0 software package (SAS Institute Inc., Cary, NC, USA).
Temperature (° C.) and relative humidity (%) were recorded every day during a one-week adaptation period and a 6-week experiment period using a portable temperature and humidity meter. Average temperature and average relative humidity of each week were calculated using the temperature and relative humidity recorded during the total experiment period. In addition, a temperature-humidity index (THI) was calculated using temperature and humidity as shown in the following equation, and heat stress state may be diagnosed using the THI as an index feature of a heat load. THI=(1.8×T+32)−[0.55−0.0055×RH)×(1.8×T−26.8)
Feed intake of each sentinel animal was calculated by measuring a total amount of feed offered and an amount left over every day, and drinking water intake thereof was calculated every day by measuring a total amount of drinking water offered and an amount left over. Also, since the amount of feed left over was measured in pen units, DMI/BW % was calculated using the equation DMI/BW %=1.2425+1.9218×NEm−0.7259×(NEm)^2 and corrected using actual data of the experiment to calculate data for each of the two heads included in each pen. Analysis results of changes in feed intake and drinking water intake of the control and the NALT-treated group are shown in Table 12. […] Based thereon, it may be interpreted that the feed intake of cattle fed with NALT increased compared with the control without having increased drinking water intake even under heat stress conditions.

Structure (SMILES): CC(=O)N[C@@H](Cc1c[nH]c2ccccc12)C(=O)O [NALT, N-acetyl-L-tryptophan]
- Decrease of feed conversion ratio compared to the control (Korean native steers [1]; 0.1% NALT in TMR): 63%
- Feed conversion ratio of the NALT-treated group relative to the control (Korean native steers [1]; 0.1% NALT in TMR): 37%
- Body weight (Korean native steers [1]; 0.1% NALT in TMR, Day 0 (initial weight)): 279.7 kg
- Body weight (Korean native steers [1]; 0.1% NALT in TMR, Day 27): 301.5 kg
- Feed conversion ratio (Korean native steers [1]; 0.1% NALT in TMR, Day 27): 13.3
- ADG (average daily gain) (Korean native steers [1]; 0.1% NALT in TMR, Day 27 (day 0 to day 27)): 0.753 kg/day
- Body weight (Korean native steers [1]; 0.1% NALT in TMR, Day 48): 315.7 kg
- Feed conversion ratio (Korean native steers [1]; 0.1% NALT in TMR, Day 48): 4.82
- ADG (average daily gain) (Korean native steers [1]; 0.1% NALT in TMR, Day 48 (day 27 to day 48)): 0.766 kg/day
- Total weight change compared with the control (Korean native steers [1]; day 27 and day 48): no statistically significant difference
- Drinking water intake (Korean native steers [2]; THIavg < 80): 35.3 kg
- Feed intake (Korean native steers [2]; THIavg < 80): 13.7 kg
- Drinking water intake (Korean native steers [2]; THIavg > 80): 44.6 kg
- Feed intake (Korean native steers [2]; THIavg > 80): 13.5 kg
- Feed intake compared to the control (Korean native steers [2]; THI of 80 or more): significantly increased
- Average feed intake (Korean native steers [2]; entire experiment period): 13.62 kg/day
- Average feed intake compared with the control (Korean native steers [2]; entire experiment period): no statistically significant difference
- Drinking water intake compared with the control (Korean native steers [2]; regardless of THI conditions): statistically significant decrease
